The values that follow come from patent USRE49351E1, “Cytoprotective agent” (Biogen MA Inc., priority 2009, dated 2023).

Marks after values point to notes of the source that are not given here.

Test [1] is described as follows: H-ORAC (hydrophilic oxygen radical absorbance capacity) assay. In kind it is biochemical. The conditions noted are these: sodium salt aqueous solution, phosphate buffer pH 7.4. The method, then: (§1) To study the free radical scavenging activity of a triprenyl phenol compound, the following H-ORAC (hydrophilic oxygen radical absorbance capacity) assay, and modified H-ORAC (mH-ORAC) assay were conducted.
(§2) SMTP compounds evaluated by H-ORAC were used respectively in a form of a sodium salt aqueous solution, and the compounds evaluated by mH-ORAC were used respectively in a form of an acetone solution.
(§3) In H-ORAC a test compound was diluted appropriately with a buffer solution (75 mM phosphate buffer solution, pH 7.4) and used for measurement. In mH-ORAC a test compound was diluted appropriately by a 50% (v/v) acetone solution, prepared by diluting an acetone solution with water, to prepare a solution of 40-fold the final concentration. […] As for the reference material Trolox, 500 μM/buffer solution was diluted appropriately with a buffer solution.
(§4) To a 96-well microplate (transparent, flat bottom, black wall) 50 μL of a test compound solution or a Trolox solution was placed, and additionally 100 μL of a fluorescein 140 nM/buffer solution as a fluorescent substance was added (final concentration 70 nM), followed by incubation at 37° C. for […].
(§5) As a free radical generator, 50 μL of a 48 mM/buffer solution of 2,2′-azobis(amidinopropane)dihydrochloride was added (final concentration 12 mM), and fluorescence intensity at fluorescence wavelength of 535 nm with excitation wavelength of 485 nm was measured at 2 min intervals for 90 min. The calibration curve was prepared between the Trolox final concentrations of 5 to 15 μM. The measurement was conducted by changing the concentration with n=3, and plotted on a diagram with time on the abscissa and the fluorescence intensity on the ordinate. Therewith evaluation was made using the value obtained by reducing the area under the curve for the blank from the area under the curve for the sample. The result was expressed as an equivalent to Trolox.

The next test concerns cerebral blood flow. Kind of test: Cerebral blood flow by laser-Doppler in mouse cerebral infarction model. Type of test: in vivo. The following applies: mean ± SE, n=3. The method, then: The improvement effectiveness of SMTP-7 and alteplase on the cerebral blood flow was compared using the mouse cerebral infarction model.
SMTP-7 and alteplase were prepared as in Example 2. SMTP-7 and alteplase were administered in an amount of 10 mg/kg into the femoral vein 1 hour after the initiation of ischemia in a mouse cerebral infarction model, wherein 10% was administered by a bolus administration, and the rest by continuous administration over 30 min. Three mice were used for each condition.
The cerebral blood flow was measured at 6 time points, namely before the initiation of ischemia, immediately after the initiation of ischemia, and after the completion of the drug administration 0 hour (immediately after the completion), 1 hour, 3 hours, and 24 hours.
The cerebral blood flow measurement was conducted by cutting the head skin of a mouse to expose the cranial bone, and measuring the blood flow of the whole brain surfaces by a laser-Doppler apparatus (moorFLPI, Moor Instruments Ltd, UK). The analysis was conducted using moorFLPI (Version 2.1) by rating percentage (%) relative to the value before the initiation of ischemia of each group.

Test [2] has as its system crab-eating monkey cerebral infarction model. Kind of test: Crab-eating monkey cerebral infarction model (thrombotic middle cerebral artery occlusion). In kind it is in vivo. The following applies: mean ± S.D. The method, then: A reducing effect of a cerebral infarction size and an improving effect of a neurological symptom of SMTP-7 in a crab-eating monkey cerebral infarction model were studied according to the following testing method.
SMTP-7 administration group: 10 mg/kg, 2 to 3 year old male crab-eating monkeys, 6 monkeys
Administration method of test substance: The administration volume was set at 10 mL/kg. A Surflo indwelling needle was indwelled in the left saphenous vein, 1 mg/kg (1 mL/kg) was administered 1 hour after ischemia as a bolus over 5 sec, then 9 mg/kg (9 mL/kg) was administered continuously over 30 min using a syringe pump.
Preparation of administration liquid: SMTP-7 was dissolved in a physiological saline solution at 1 mg/mL. More particularly, to 70.0 mg of a SMTP-7 sodium salt (containing 63.1 mg of SMTP-7) was added 63.1 mL of a physiological saline solution, and the liquid was stirred by a magnetic stirrer under heating in a hot-water bath (37° C.) for dissolution. An ultrasonic treatment was conducted according to need. After dissolution the liquid was subjected to filter sterilization by a sterile filter (0.22 μm, made of cellulose acetate). The administration liquid was prepared before using. After the preparation it was kept in a 37° C. hot-water bath until immediately before the use, and the administration was finished within 4 hours after the preparation.
The treatment of cerebral infarction was conducted according to the standard experimental protocol (SPHPR710-15A). More particularly, after extirpating the right eyeball, the eyeground bone outside the optic nerve exit was removed by a dental drill to expose the dura mater. The dura mater was carefully detached to identify the middle cerebral artery. The origin part of the middle cerebral artery was separated from the arachnoid mater and a light irradiation probe for generating a thrombus was fixed on the middle cerebral artery. At the distal end of the probe a probe of a pulse Doppler blood flowmeter (Crystal Bio, PDV-20) was placed. An intravenous administration of rose bengal (Wako Pure Chemical Industries, Ltd.) (20 mg/kg) over 6 min was initiated and an irradiation with green light with the wavelength of 540 nm (1.40 million LUX) was conducted for 20 min to block the middle cerebral artery by a thrombus. The initiation time of the light irradiation and the administration of the rose Bengal was defined as the initiation time of ischemia. The middle cerebral artery blood flow was measured by the pulse Doppler blood flowmeter continuously for 2 hours from the initiation time of the light irradiation and then the incision was closed. A series of procedures were carried out completely under an operating microscope to minimize intraoperative hemorrhage to the utmost. Further, the rectal temperature of an animal under operation was monitored, and the animal was kept warmed by a heating pad, so as to maintain the body temperature of the animal in a physiological range (37.0 to 38.5° C.).
Neurological symptoms as described below were observed 24 hours after ischemia according to J. Neurosci. Meth., 2001; 105: 45-53.
After the neurological symptom observation 24 hours after the operation, a euthanasia treatment was conducted by means of a megadose of pentobarbital and the brain was extirpated. Six mm-thick coronal slices were prepared and photographed for quantitative determination of a hemorrhagic infarction. Thereafter, the infarction area was stained in a 2% TTC solution and photographs were taken for quantitative determination of an infarction size. For evaluations of the hemorrhagic infarction and the infarction area, the occipital lobe side of each slice was used.
Photographs of an individual were converted to TIF images and hemorrhagic infarction areas and the respective infarction areas were marked by Photoshop 7.0 (Adobe), which sizes were then measured by Scion Image 0.4.0.3 (Scion Corporation). […]

Test [3] is described as follows: modified H-ORAC (mH-ORAC) assay. In kind it is biochemical. The conditions noted are these: acetone solution, acetone final concentration 1.25%. On the procedure:
as §1, §2, §3, §4, §5

The mark [4] stands for this setting: 10 mg/kg 1 hour after ischemia, 0 hr after completion of administration.
The mark [5] stands for this setting: 10 mg/kg 1 hour after ischemia, 1 hr after completion of administration.
The mark [6] stands for this setting: 10 mg/kg 1 hour after ischemia, 3 hr after completion of administration.
Setting [7] is: 10 mg/kg 1 hour after ischemia, 24 hr after completion of administration.
[8] abbreviates: immediately after initiation of ischemia (before drug administration), group later given 10 mg/kg.
Where [9] appears, read: 10 mg/kg i.v. 1 hour after ischemia, 24 hours after ischemia.

Regarding `CC(C)=CCC/C(C)=C/CCC1(C)Oc2c(c(O)cc3c2CN(C(Cc2c[nH]c4ccccc24)C(=O)O)C3=O)CC1O` (stereo not drawn) [SMTP-6], in test [1], the “free radical scavenging activity, Trolox equivalent” value (“free radical scavenging activity” for short) was 3.73 ± 0.42 molTE/mol.

As for `CC(C)=CCC/C(C)=C/CC[C@@]1(C)Oc2c(c(O)cc3c2CN(CCC[C@@H](C(=O)O)N2Cc4c(cc(O)c5c4O[C@](C)(CC/C=C(\C)CCC=C(C)C)[C@@H](O)C5)C2=O)C3=O)C[C@@H]1O` [SMTP-7], in the test with cerebral blood flow (setting [4]), the “cerebral blood flow relative to the value before the initiation of ischemia” value stood at 43.74 ± 12.67%. Also, in the test on cerebral blood flow (setting [5]), the “cerebral blood flow relative to the value before the initiation of ischemia” value stood at 44.48 ± 12.59%. In addition, the “cerebral blood flow relative to the value before the initiation of ischemia” value with cerebral blood flow (setting [6]) worked out at 48.90 ± 15.89%. Also, the “cerebral blood flow relative to the value before the initiation of ischemia” value in the test with cerebral blood flow (setting [7]) came out at 76.01 ± 9.71%. Moreover, the “cerebral blood flow relative to the value before the initiation of ischemia” value in the test on cerebral blood flow (setting [8]) stood at 34.17 ± 5.22%. Moreover, the “free radical scavenging activity” value in test [1] was found to be 2.08 ± 0.13 molTE/mol. Besides, in test [2] (0~60 min after ischemia (before administration), 10 mg/kg i.v.), the “Occlusion Time” value amounted to 45.5 ± 3.8 min. For the same compound, in test [2] (setting [9]), the “Hemorrhagic infarction area size” value is 14.1 ± 7.4 (P < 0.05) mm^2, the “cerebral infarction size: Basal ganglion” value is 1419.7 ± 633.8* mm^3, the “cerebral infarction size: Cerebral cortex” value turned out to be 237.8 ± 198.8 mm^3 and the “cerebral infarction size: Total” value is on record as 1745.1 ± 749.5* mm^3. Further, in test [2] (setting [9]), the “cerebral infarction size: White matter” value is given as 87.7 ± 71.8 mm^3, the “neurological symptom score: Consciousness” value is recorded as 7.7 ± 2.0, the “neurological symptom score: Motor system” value came to 10.7 ± 2.7 and the “neurological symptom score: Sensory system” value came to 7.5 ± 1.6. In test [2] (setting [9]), the “neurological symptom score: Skeletal muscle coordination system” value came to 5.3 ± 2.4 and the “neurological symptom score: Total” value worked out at 31.2 ± 7.9. Besides, the “Total Occlusion Time” value in test [2] (10 mg/kg i.v. 1 hour after ischemia, measured for 2 hours, 6 monkeys) amounted to 86.8 ± 18.8 min. In addition, the “Time to Occlusion” value in test [2] (10 mg/kg i.v. 1 hour after ischemia, middle cerebral artery blood flow, 6 monkeys) came out at 6.9 ± 2.5 min. For the same compound, the “Occlusion Time” value in test [2] (60~120 min after ischemia, 10 mg/kg i.v. 1 hour after ischemia) is reported as 41.3 ± 18.9 min. Also, the “free radical scavenging activity” value in test [3] is reported as 1.82 ± 0.27 molTE/mol.

On to alteplase [reference compound], for which the “cerebral blood flow relative to the value before the initiation of ischemia” value in the test with cerebral blood flow (setting [4]) is 56.45 ± 14.70%; in the test on cerebral blood flow (setting [5]), 73.49 ± 20.33%; in the test on cerebral blood flow (setting [6]), 66.83 ± 11.10%; with cerebral blood flow (setting [7]), 71.63 ± 6.06%; in the test on cerebral blood flow (setting [8]), 27.30 ± 2.35%.
